PMC10386196, “A First-Class Degrader Candidate Targeting Both KRAS G12D and G12V Mediated by CANDDY Technology Independent of Ubiquitination” (Molecules, 2023)
Square brackets hold non-standard residues; d marks the D form. Peptide text beside a SMILES is read from it. Nle = CCCC[C@H](N)C(=O)O

How the values were obtained:
[1] = biological target: proteasome β5 (Homo sapiens, UniProt P28074); experiment: Inhibition of proteasome β5 (chymotrypsin-like) activity, Suc-LLVY-AMC substrate; type: biochemical; details: SE in parentheses, n = 2
Procedure: (§1) Reaction time (min) Reaction time (min)
(§2) Figure S1. Proteasome Inhibitors Modified as Degradation Tags, Related to Figures 2
(§3) (A) Chymotrypsin-like (β5) , trypsin-like (β2) and caspase-like (β1) activities of the pr oteasome were monitor ed by Suc- LLVY-
(§4) AMC (β5 substrate) , Bz- VGR-AMC (β2 substr ate) and Z -LLE-AMC (β1 substrate), respectively. AMC fluorescence was
(§5) m onitor ed by a plate reader with excitation and emission filter s of 360 nm and 460 nm, respectively (DMSO, 30 min = 1) […]

[2] = biological target: proteasome β2 (Homo sapiens, UniProt Q99436); experiment: Inhibition of proteasome β2 (trypsin-like) activity, Bz-VGR-AMC substrate; type: biochemical; details: SE in parentheses, n = 2
Procedure: as §1, §2, §3, §4, §5

[3] = biological target: proteasome β1 (Homo sapiens, UniProt P28072); experiment: Inhibition of proteasome β1 (caspase-like) activity, Z-LLE-AMC substrate; type: biochemical; details: SE in parentheses, n = 2
Procedure: as §1, §2, §3, §4, §5

[4] = biological target: β5/β2/β1 of the proteasome (Homo sapiens, UniProt P28072+P28074+Q99436); experiment: Proteasomal inhibitory activity, stated in words for all subunits; type: biochemical; details: listed as TMP-CANDDY_MLN (1)
Procedure: as §1, §2, §3, §4, §5

[5] = biological target: T1, ecDHFR (Escherichia coli, UniProt P0ABQ4); experiment: Cellular thermal shift assay (CETSA) for ecDHFR in HeLa cells; type: binding; details: ecDHFR-HA-GFP-expressing HeLa cells, 3 h treatment
T1 construct: expressed in transfected cells; host or cells: HeLa cells (bicistronic construct co-expressing DsRed)
Procedure: Figure 2 Proof of principle for the CANDDY Strategy. (A) Structures of degraders 1–3 constructed with TMP and each degradation tag (CANDDY_MLN, CANDDY_ALLN, or CANDDY_BTZ). (B) Comparison of proteasomal inhibitory activity of b2 by 1–3 and each proteasome inhibitor. […] Cell extraction was treated with heat for 3 min and then analyzed via immunoblotting. (D) Degradation rates of ecDHFR by 1–3. The same procedure as in (E) was performed except for 24 h. (E) ecDHFR degradation by 1 for 24 h. The ratio of ecDHFR-HA-GFP/DsRed was detected via flow cytometry.

[6] = biological target: T1, ecDHFR; type: cell-based
Procedure: Cell extraction was treated with heat for 3 min and then analyzed via immunoblotting. […] The same procedure as in (E) was performed except for 24 h. […] The ratio of ecDHFR-HA-GFP/DsRed was detected via flow cytometry.
HeLa cells co-expressed ecDHF R- HA-GF P and DsRed from a bicistronic construct.
(C) HeLa cells co-expressed ecDHFR-HA-GFP and DsRed from a bicistronic construct. Target-expressing HeLa cells were
treated with a CANDDY molecule (1).

[7] = biological target: T2, KRAS G12D (Homo sapiens, UniProt P01116, G12D); experiment: KRAS degradation in a cell-free system with 26S proteasome; type: biochemical; details: only 26S proteasome and target protein, 3 h at 37 °C
Procedure: KRAS G12D (final concentration: 5 ng/µL) and 26S proteasome (final concentration: 8 nM) were incubated with TUS-007 (10, 20, 40 µM), RAS-SOS inhibitor (40 µM), RAS-SOS-NH2 (40 µM), or DMSO in 20 mM Tris-HCl buffer (pH 7.5) containing 20% glycerol for 3 h at 37 °C. To assess the effect of MLN on chemical knockdown, KRAS G12D and 26S proteasome were incubated with DMSO or TUS-007 40 µM in the presence or absence of MLN (1 µM) in the same condition. After centrifugation at 14,000× g for 10 min, the supernatants were analyzed via SDS-PAGE, followed by immunoblotting using an anti-KRAS antibody (1:1000, WH0003845MI, Sigma-Aldrich).

[8] = Solubility (statement in words); type: physicochemical; details: reason not used as in vivo control
[9] = biological target: KRAS G12D; design: method as in PMID 22566140; details: cited from earlier work
[10] = biological target: T3, KRAS G12V (Homo sapiens, UniProt P01116, G12V); experiment: KRAS G12V-HA-GFP degradation in HeLa cells; type: cell-based; details: exogenously expressed, flow cytometry and immunoblotting
T3 construct: expressed in transfected cells; host or cells: HeLa cells
Procedure: (§6) Figure 3 RAS Chemical Knockdown in vitro. (A) Structures of RAS-SOS inhibitor (4), RAS-SOS-NH2 (5), and TUS-007 as a RAS degrader. (B,C) Assessing the binding affinity of TUS-007 to targets KRAS (G12D, G12V, or wild-type) (B) and proteasome β5 (C) using CETSA. Recombinant KRAS or PSMB5 was treated with vehicle, 4, or TUS-007 for 30 min. The mixture was treated with heat and then analyzed via immunoblotting. […] KRAS-HA-GFP and DsRed-expressing HeLa cells were treated and analyzed via immunoblotting. (F) The same procedure was performed as in (D) (mean ± SEM; n = 3) except for 48 h. (G) Ubiquitination-independent proteasomal KRAS G12D degradation. KRAS G12D-HA-GFP and DsRed-expressing HeLa cells were co-treated with TUS-007 and the NAE inhibitor ([…], […]) or PYR-41 (E1 inhibitor, […]) and then analyzed via flow cytometry. […]
(§7) β5 activity β2 activity β1 activity […]
(§8) Figure S3. Proteasomal Inhibitory Activities of TUS-007 and Degradation of KRAS by TUS-007, Related to Figure 3 […]
(§9) Degradation of mutant (G12D and G12V) and wild- type KRAS pr oteins by TUS- 007 was rescued by treatment with the proteasome inhibitor M LN2238 ([…]). […] KRAS G12D-HA-GFP and DsRed-expressing HeLa cells were co-treated with TUS-007 and 17-AAG (HSP90 inhibitor, 2 ∝M), or VER-155008 (HSP70 inhibitor , 2 ∝M) for 24 h and then analyzed by flow cytometry.

[11] = biological target: T4, wild-type KRAS (Homo sapiens, UniProt P01116); experiment: Wild-type KRAS-HA-GFP degradation in HeLa cells; type: cell-based; details: exogenously expressed, flow cytometry and immunoblotting
T4 construct: expressed in transfected cells; host or cells: HeLa cells
Procedure: as §6, §7, §8, §9

[12] = biological target: T2, KRAS G12D; experiment: KRAS G12D-HA-GFP degradation in HeLa cells; type: cell-based; design: expressed in transfected cells; host or cells: HeLa cells; details: exogenously expressed, flow cytometry and immunoblotting
Procedure: as §6, §7, §8, §9
Target sequence in this assay (P01116 1-188 isoform P01116-2 G12D): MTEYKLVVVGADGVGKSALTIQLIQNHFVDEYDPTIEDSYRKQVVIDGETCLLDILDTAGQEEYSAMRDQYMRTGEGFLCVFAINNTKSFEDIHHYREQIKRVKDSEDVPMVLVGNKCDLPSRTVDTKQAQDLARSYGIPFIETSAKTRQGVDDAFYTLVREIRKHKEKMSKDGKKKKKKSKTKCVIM

T1 sequence (P0ABQ4 whole entry): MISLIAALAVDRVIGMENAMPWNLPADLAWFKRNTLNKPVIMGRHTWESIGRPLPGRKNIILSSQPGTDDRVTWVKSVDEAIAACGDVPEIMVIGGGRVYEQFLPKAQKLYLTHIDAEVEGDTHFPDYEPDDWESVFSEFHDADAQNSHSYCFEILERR
T4 sequence (P01116 1-188 isoform P01116-2): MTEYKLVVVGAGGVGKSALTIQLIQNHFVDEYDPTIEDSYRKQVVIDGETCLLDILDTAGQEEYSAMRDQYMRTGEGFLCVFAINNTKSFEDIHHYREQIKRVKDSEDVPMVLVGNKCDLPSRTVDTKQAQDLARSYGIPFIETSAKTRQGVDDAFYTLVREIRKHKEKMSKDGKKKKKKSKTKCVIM
T3 sequence (P01116 1-188 isoform P01116-2 G12V): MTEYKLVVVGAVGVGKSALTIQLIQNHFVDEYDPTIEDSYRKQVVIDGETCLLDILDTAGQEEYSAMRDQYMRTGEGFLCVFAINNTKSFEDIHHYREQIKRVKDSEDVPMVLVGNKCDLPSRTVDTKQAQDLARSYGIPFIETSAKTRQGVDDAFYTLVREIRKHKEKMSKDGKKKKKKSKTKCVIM

Structure (SMILES) | IC50 [1] [µM] | IC50 [2] [µM] | IC50 [3] [µM] | target affinity for ecDHFR compared with TMP (CETSA) [5] | also measured
CCCC[C@@H](C=O)NC(=O)[C@H](CC(C)C)NC(=O)[C@H](CC(C)C)NC(C)=O [ALLN, reference compound] (Ac-Leu-Leu-[Nle]-aldehyde) | 1 | 4.3 | 9.8 |  | 
CC(C)C[C@H](NC(=O)CNC(=O)c1cc(Cl)ccc1Cl)B(O)O [MLN2238, reference compound] |  | 8.9 | 0.029 |  | 
COc1cc(Cc2cnc(N)nc2N)cc(OC)c1OCC(=O)NCCCCCCNC(=O)[C@H](CC(C)C)NC(=O)CNC(=O)c1cc(Cl)ccc1Cl [compound 1] | > 160 | > 160 | > 160 | more efficient | proteasomal inhibitory activity (β5, β2, β1) [4]: almost no proteasomal inhibitory activity; ecDHFR degradation ([6]; HeLa cells, 24 h, immunoblotting and flow cytometry (GFP/DsRed)): highest target degradation efficiency; time dependence of ecDHFR degradation ([6]; HeLa cells, flow cytometry): time-dependent ecDHFR degradation; ecDHFR degradation on co-treatment with inhibitors of E1 or E3 ([6]; co-treatment with NAE inhibitor (E3) or PYR-41 (E1), flow cytometry): did not inhibit ecDHFR degradation
CCCC[C@H](NC(=O)[C@H](CC(C)C)NC(=O)[C@H](CC(C)C)NC(C)=O)C(=O)NCCCCCCNC(=O)COc1c(OC)cc(Cc2cnc(N)nc2N)cc1OC [compound 2] | 46.2 | > 160 | > 160 | more efficient | 
COc1cc(Cc2cnc(N)nc2N)cc(OC)c1OCC(=O)NCCCCCCNC(=O)[C@H](CC(C)C)NC(=O)[C@H](Cc1ccccc1)NC(=O)c1cnccn1 [compound 3] | > 160 | > 160 | > 160 | lower | 
CC[C@H](C)[C@H](N)C(=O)Nc1ccc2nc(Cc3c[nH]c4ccccc34)[nH]c2c1 [compound 4, reference compound] |  |  |  |  | degradation of KRAS G12D in cell-free system [7]: not; solubility [8]: low solubility; Kd [9]: 190 µM
CC[C@H](C)[C@H](NC(=O)CCCCCCN)C(=O)Nc1ccc2[nH]c(Cc3c[nH]c4ccccc34)nc2c1 [compound 5] |  |  |  |  | degradation of KRAS G12D in cell-free system [7]: not; KRAS G12V degradation in HeLa cells [10]: no degradation; wild-type KRAS degradation in HeLa cells [11]: no degradation; solubility [8]: low solubility; KRAS G12D degradation in HeLa cells [12]: no degradation
